Measured values taken from US20140088192A1, “SUBCUTANEOUSLY INFUSIBLE LEVODOPA PRODRUG COMPOSITIONS AND METHODS OF INFUSION” (SynAgile Corporation, priority 2010, published 2014).

Legend:
[1] = Achievable concentration and density of concentrated LDEE salt solutions
Protocol: The pH was adjusted to 4.60 by adding 160 mg of sodium acetate.

volunteer [2] = experiment: Intramuscular / subcutaneous infusion of LDEE.HCl in human volunteers, local tolerability; type: in vivo; details: s.c. abdomen, 0.24 mL of 2.3 M pH 4.5 over about 90 min in 8 boluses
volunteer [3] = experiment: as above; type: in vivo
Protocol: The flow rate was 0.6 mL/h. […] The protrusion disappeared after 2 days.
A healthy volunteer took one Lodosyn (carbidopa), 25 mg pill, at each of the morning, midday and evening of the day preceding the infusion, and in the morning, midday and evening of the day of the infusion. After adjusting the pH of a stored solution of pH 2.4 and 2.5 mL volume of 2.9 M LDEE.HCl by adding to it 0.16 mL of 1.5 M trisodium citrate solution to about pH 4.6±0.1, a 2.7 M LDEE.HCl solution was obtained. Using a Medtronic Minimed Paradigm 723, a Medtronic Minimed Silhouette, 43 inches, 17 mm cannula infusion set, a Medtronic Minimed Sil-Serter infusion set insertion system, the volunteer infused 0.67 mL of the 2.7 M LDEE.HCl solution into their abdomen over a period of 9 hours. The infusion site was 7-8 cm below the ribs. The initial 4 hr infusion was at a rate of 0.062 mL/hr (37.5 mg of LDEE/hr), followed by 0.082 mL/hr (50 mg of LDEE/hr) in the next 5 hours. The total infused volume contained 406 mg LDEE, the equivalent to 356 mg L-DOPA.
A healthy volunteer took one Lodosyn (carbidopa), 25 mg pill, at each of the evening preceding the infusion, and in the morning, midday and evening of the day of the infusion. After adjusting the pH to about pH 4.7±0.3 of a stored solution of pH 2.4 and 2.5 mL volume of 2.9 M LDEE.HCl by adding 0.16 mL of 1.5 M trisodium citrate solution, a 2.7 M LDEE.HCl solution was obtained. Using a Medtronic Minimed Paradigm 723, a Medtronic Minimed Silhouette, 43 inches, 17 mm cannula infusion set, and a Medtronic Minimed Sil-Serter infusion set insertion system, the a volunteer infused 0.67 mL of the 2.7 M LDEE.HCl solution into the frequently exercised and occasionally massaged outside of the upper arm over a period of 9 hours. The initial 4 hr infusion was at a rate of 0.062 mL/hr (37.5 mg of LDEE/hr), followed by 0.082 mL/hr (50 mg of LDEE/hr) in the next 5 hours. The total infused volume contained 400 mg LDEE, the equivalent to 351 mg L-DOPA.
A healthy volunteer took one Lodosyn (carbidopa), 25 mg pill, at each of the evening of the day preceding the infusion, and in the morning, mid-day and evening of the day of the infusion. 1 mL of the 2.9 M LDEE.HCl stored solution of pH 2.4, 0.04 mL of a 1.5 M trisodium citrate solution and 2 mL sterile water were syringed into the reservoir of a Medtronic Minimed Paradigm 723 pump. This pump and a Medtronic Minimed Silhouette, 43 inches, 17 mm cannula infusion set inserted with a Medtronic Minimed Sil-Serter infusion set insertion system were used. The volunteer infused 1.85 mL, or 396 mg LDEE (equivalent to 347 mg L-DOPA) of the now 3× diluted 0.95 M LDEE solution into their upper arm over a period of 9 hours at two rates: First near 37.5 mg/hr (0.175 mL/hr) for 4 hours then near 50 mg/hr (0.233 mL/hr) for 5 hours. During the course of the infusion the volunteer periodically exercised their arm and gently massaged the infusion site.
A healthy volunteer took one Lodosyn (carbidopa), 25 mg pill, at each of the evening of the day preceding the infusion, and in the morning, mid-day and evening of the day of the infusion. The reservoir of a Medtronic Minimed Paradigm 723 pump was primed (to assure that all of the 3 mL in the reservoir will be infused) then the reservoir was filled with 0.6 mL of the 2.9 M LDEE.HCl stored solution of pH 2.4, 0.024 mL of a 1.5 M trisodium citrate solution and 2.4 mL sterile water by syringing. The pump, a Medtronic Minimed Silhouette, 43 inches, 17 mm cannula infusion set, and a Medtronic Minimed Sil-Serter infusion set insertion system were used. The volunteer infused 3 mL, or 400 mg LDEE (equivalent to 350 mg L-DOPA) of the now 5× diluted (i.e. 0.58 M) LDEE solution into their upper arm over a period of 9 hours at a flow rate of 0.33 mL/hr. […] The infusion ended at 7:30 pm. […]

[4] = Estimated / projected shelf life and operational life (time to LD saturation); details: for storage time without LD precipitation: 2.5±0.5 M aqueous; for time remaining precipitate free: after 18 months refrigerated storage
Description: To minimize hydrolysis and LD precipitation, the LDE salt can be stored in its dry solid form, and dissolved in water or in an aqueous solution prior to use. Alternatively and preferably, the LDE salt can be dissolved, and stored as an aqueous solution at a pH and at a temperature where the rate of hydrolysis is slow. […] The operational life, meaning the life of the infused solution, is similarly pH dependent. The pH of a subcutaneously infused solution can be generally greater than about 4.0. […] To extend the shelf life, the solution may be optionally stored at a temperature below about 25° C., for example it may be refrigerated at about 5±3° C.
After flushing with nitrogen, the solution was kept for 7 days at 23±2° C. in a vial sealed with a grey elastomeric, substantially oxygen impermeable septum. […] An operational life of 4 days suffices for infusion.
After flushing with nitrogen, the solution was kept in a vial sealed with a grey, elastomeric oxygen impermeable septum.
After flushing with nitrogen, the solution was kept in a vial sealed with a grey elastomeric, oxygen impermeable septum.

[5] = intramuscular, right upper arm, about 0.45 mL of 2.3 M pH 4.5 over 45 min
[6] = s.c. abdomen, 0.67 mL of 2.7 M over 9 hours
[7] = s.c. exercised upper arm, 0.67 mL of 2.7 M over 9 hours
[8] = s.c. exercised upper arm, 1.85 mL of 0.95 M over 9 hours
[9] = s.c. upper arm, 3 mL of 0.58 M over 9 hours
[10] = s.c. upper arm, 10.7 mL of 0.48 M over 18 hours

## CCOC(=O)[C@@H](N)Cc1ccc(O)c(O)c1.Cl [LDEE.HCl, LDEE Hydrochloride]
[1]; aqueous solution
  concentration of aqueous solutions allowed by solubility: greater than 2.5 M
[1]; pH 4.60 (sodium acetate), ambient about 23±2° C.
  concentration of clear solution (high solubility): about 2.5 M
Volunteer [2]
  nodule formation: nor did it cause the formation of a nodule
Volunteer [3]; intramuscular, about 0.45 mL of 2.3 M pH 4.5
  time to disappearance of the protrusion: 2 days
Volunteer [3]; [5]
  local reaction after infusion: small nodule which spread after 4 hours into an about 1 mm high, 2-3 cm radius protrusion
  pain, inflammation, color change, sensitivity at the site: no pain, inflammation, color change or sensitivity
Volunteer [3]; s.c. abdomen, 0.24 mL of 2.3 M pH 4.5 over about 90 min in 8 boluses
  pain or irritation: felt no pain or irritation during or after the infusion
Volunteer [3]; [6]
  course of induration after 24 hours: became diffuse and partly, but not completely, subsided
  other adverse events: no other adverse events
  swelling / induration at infusion site: Mild swelling was observed and an induration of approximately 2.5 cm diameter developed
Volunteer [3]; s.c. abdomen, 0.67 mL of 2.7 M pH about 4.6 over 9 hours, oral carbidopa
  pain or redness: virtually no pain or redness
Volunteer [3]; [7]
  course of swelling: disappeared after a week
  other adverse events: no other adverse events of any kind
  swelling at infusion site at end of infusion: about 7 cm long elongated mildly swollen region
Volunteer [3]; s.c. exercised upper arm, 0.67 mL of 2.7 M pH about 4.7 over 9 hours, oral carbidopa
  pain or redness: virtually no pain or redness
Volunteer [3]; [8]
  course of swelling: disappeared gradually in about three days
  other adverse events: no other adverse events
  swelling at infusion site at end of infusion: very slightly swollen region of about 4 cm diameter
Volunteer [3]; s.c. exercised upper arm, 1.85 mL of 0.95 M over 9 hours, oral carbidopa
  pain or redness: no pain or redness
Volunteer [3]; [9]
  adverse events: no adverse events
  local findings at end of infusion: very slight reddening of a 2×4 cm skin area and a very slightly harder than normal 2 cm diameter zone under the skin
  site on the following morning: the skin and infused tissue appeared normal
Volunteer [3]; s.c. upper arm, 3 mL of 0.58 M over 9 hours, oral carbidopa
  pain during infusion: felt no pain during the infusion
Volunteer [3]; [10]
  adverse events: no adverse events
  swelling: swelling most of which subsided within 8 hours
  time after which swelling was no longer visible: 12 h
Volunteer [3]; s.c. upper arm, 10.7 mL of 0.48 M pH 4.8-5.0 (5.1 millimoles) over 18 hours, oral carbidopa
  pain, reddening, inflammation at end of infusion: no pain, reddening or inflammation
[4]; 2.5 M solution at 4° C. (per Example 18)
  projected storage (shelf) life: greater than 4 years
[4]; 2.5 M solution, pH 2.3, about 4° C.
  projected shelf life: about 4.7 years
[4]; 2.5 M, pH 4.5 citrate, 29° C.-30° C.
  operational life (time to LD saturation): 4 days
[4]; 2.5 M, pH 4.5 citrate, 37° C. body temperature
  operational life, projection: about 2 days
[4]; 2.5 M, pH 4.5 citrate, about 23° C.
  operational life (time to LD saturation): about 9 days
[4]; pH 2.5±0.5, about 5±3° C.
  storage time without LD precipitation: about 3 years
[4]; pH about 1.5 to about 3.5, about 5±3° C.
  storage time without LD precipitation: more than 1 year
[4]; 2.7 M LDEE.HCl, LD saturation about 17 grams per liter
  % of the LDEE.HCl hydrolyzed at which LD saturation is reached: about 3.4%
[4]; about 2.0 M LDEE.HCl solution
  Estimated pH 2.3 storage life at 4° C.: 50 months
  Estimated pH 2.3 storage life at 25° C.: 2 months
  Estimated pH 4.5 operational life at 30° C.: 4 days
  Estimated pH 4.5 operational life at 37° C.: 2 days
[4]; about 2.7 M, about pH 4.49, 40° C.
  operational life: > 48 h
[4]; after 18 months at 4° C., then operational ambient temperature
  residual operational life: more than 3 days
[4]; pH raised to about 4.2±0.3, 30° C.
  time remaining precipitate free: more than 3 days
[4]; pH raised to about 4.2±0.3, 37° C.
  time remaining precipitate free: more than 2 days
[4]; after one year at 4° C., then 23° C. ambient
  residual operational life: greater than 4 days
[4]; refrigerated pH 4.0 solution, 2.4 M
  projected time free of LD precipitate: about 50 weeks
